Test results taken from patent US20110028503A1, “COMPOSITIONS AND METHODS FOR INHIBITION OF THE JAK PATHWAY” (RIGEL PHARMACEUTICALS, INC., priority 2009, published 2011).

Tests used:
Assay type in all cases: cell-based
[1] = system: U937 human monocytic cells stimulated with IFNγ (ICAM-1 up-regulation, JAK/Stat pathway); assay: U937 IFNγ ICAM1 FACS assay; settings: U-937, IFNγ 10 ng/mL, 18-24 hours, ICAM-1 FACS, read-out: Example 6 IC50 (U937 IFNγ ICAM1 FACS assay)
Description: U937 human monocytic cells up-regulate ICAM-1 (CD54) surface expression in response to a variety of different stimuli. Therefore, using ICAM-1 expression as readout, compound effects on different signaling pathways can be assessed in the same cell type. IFNγ up-regulates ICAM-1 through activation of the JAK/Stat pathway. In this example, the up-regulation of ICAM-1 by IFNγ was assessed.
U937 cells were grown in 10% RPMI. The cells were then plated at a concentration of 100,000 cells per 160 μL in 96 well flat bottom plates. […] Then 4 μL of test compound was transferred to 76 μL of 10% RPMI resulting in a 10× solution (100 μM test compound, 5% DMSO). For control wells, 4 μL of DMSO was diluted into 76 μL 10% RPMI.
The assay was performed in duplicate with 8 points (8 3-fold dilution concentrations from […]) and with 4 wells of DMSO only (control wells) under stimulated conditions and 4 wells of DMSO only under unstimulated conditions.
The diluted compound plate was mixed 2× using a multimek (Beckman Coulter of Brea, Calif.) and then 20 μL of the diluted compounds was transferred to the 96 well plate containing 160 μL of cells, which were then mixed again twice at low speeds. The cells and compounds were then pre-incubated for 30 minutes at 37° C. with 5% CO2. […]
Both % live cells and ICAM-1 expression was analyzed. […]

[2] = system: human Ramos B cells stimulated with human IL-4 (JAK1 and JAK3 kinases, CD23 upregulation); assay: Ramos B-cell line stimulated with IL-4 (CD23 upregulation, FACS); settings: IL-4 50 units/mL, 20-24 hours, anti-CD23-PE FACS, read-out: Example 3 IC50 (Ramos B-cell line stimulated with IL-4, CD23)
Description: One means of assaying for JAK inhibition is detection of the effect of compounds I and II on the upregulation of downstream gene products. In the Ramos/IL4 assay, B-cells are stimulated with the cytokine Interleukin-4 (IL-4) leading to the activation of the JAK/Stat pathway through phosphorylation of the JAK family kinases, JAK1 and JAK3, which in turn phosphorylate and activate the transcription factor Stat-6. […] Twenty to 24 hours post stimulation, cells are stained for upregulation of CD23 and analyzed using flow cytometry (FACS). […] An exemplary assay of this type is described in greater detail below. B-cells stimulated with cytokine Interleukin-4 (IL-4) activate the JAK/Stat pathway through phosphorylation of the JAK family kinases, JAK-1 and JAK-3, which in turn phosphorylate and activate the transcription factor Stat-6. […] To study the effect of inhibitors on the JAK family kinases, human Ramos B cells are stimulated with human IL-4. The Ramos B-cell line was acquired from [NT] No. CRL-1596). The cells were cultured in RPMI 1640 (Cellgro, MediaTech, Inc., Herndon, Va., Cat No. 10-040-CM) with 10% fetal bovine serum (FBS), heat inactivated (JRH Biosciences, Inc, Lenexa, Kans., Cat No. 12106-500M) according to ATCC propagation protocol. […] Cells were then spun down and stained with anti-CD23-PE(BD Pharmingen, San Diego, Calif., Cat No. 555711) and analyzed by FACS. […]

[3] = system: primary human T-cells (IL-2 stimulated proliferation; JAK1 and JAK3); assay: Primary human T-cell proliferation assay stimulated with IL-2; settings: IL-2, 72 hours, CellTiter-Glo ATP readout, read-out: Example 4 IC50 (primary human T-cell proliferation stimulated with IL-2)
Source text: In this assay, primary human T-cells derived from peripheral blood and pre-activated through stimulation of the T-cell receptor and CD28, proliferate in culture in response to the cytokine Interleukin-2 (IL-2). This proliferative response is dependent on the activation of JAK1 and JAK3 tyrosine kinases, which phosphorylate and activate the transcription factor Stat-5. […] A reduction in cell proliferation compared to control conditions is indicative of inhibition of the JAK kinase pathway. An exemplary assay of this type is described in greater detail below.
Primary human T-cells derived from peripheral blood and pre-activated through stimulation of the T-cell receptor and CD28, proliferate in vitro in response to the cytokine Interleukin-2 (IL-2). This proliferative response is dependent on the activation of JAK-1 and JAK-3 tyrosine kinases, which phosphorylate and activate the transcription factor Stat-5.
Human primary T cells were prepared as follows. […] The lymphocytes at the serum: ficoll interface were recovered and washed twice with 5 volumes of PBS. […]
Proliferation was measured using CellTiter-Glo® Luminescent Cell Viability Assay (Promega), which determines the number of viable cells in culture based on quantitation of the ATP present, as an indicator of metabolically active cells. […]

IC50 [1]: 565 nM | IC50 [2]: 56 nM
SMILES: C#CCOc1ccc(Nc2nc(Nc3ccc(C)c(S(N)(=O)=O)c3)ncc2F)cc1 [Compound I, N2-(3-Aminosulfonyl-4-methylphenyl)-5-fluoro-N4-[4-(prop-2-ynyloxy)phenyl]-2,4-pyrimidinediamine]
IC50 [3]: 181 nM
